In US7572438B2, “Mutant having uracil phosphoribosyl transferase activity” (Transgene S.A., priority 1998, dated 2009):

Legend:
PANC-1 = assay: LD50 of 5-FC and 5-FU on adenovirus-infected PANC-1 cells (MOI 5); format: cell-based, human; conditions: PANC-1, mock-infected, 6 days
Protocol: (§1) The LD50 values for 5-FC and 5-FU are determined vis-a-vis the three human tumor cell lines infected with the different viruses (Ad null, Ad.CMV-FCY1, Ad.CMV-FUR1A1Δ105 and Ad.CMV-FCU1) or coinfected with the adenoviruses expressing the FCY1 and FUR1Δ105 genes. The cells are infected at an MOI of 5 and then cultured in the presence of different concentrations of 5-FC and 5-FU. After 6 days of culture, the viability of the cells is determined using trypan blue. The LD50 values listed in Table 6 are the means of four counts.

SK-BR-3 = assay: LD50 of 5-FC and 5-FU on adenovirus-infected SK-BR-3 cells (MOI 5); format: cell-based, human; conditions: SK-BR-3, mock-infected, 6 days
Protocol: as §1

SW480 = assay: LD50 of 5-FC and 5-FU on adenovirus-infected SW480 cells (MOI 5); format: cell-based, human; conditions: 6 days
Protocol: as §1

B16(F0) cells [1] = assay: Sensitivity of transfected B16(F0) clones to 5-FC and 5-FU (LD50, trypan blue); format: cell-based, mouse; conditions: 6 days with drug
Protocol: The sensitivities of the different clones to 5-FC and 5-FU are also tested after incubating in the presence of the drugs for 6 days. The following values are the means of four counts (using trypan blue) of cell mortality.

B16(F0) cells [2] = assay: Bystander effect: mixtures of untransfected and pCI-neoFCU1-transfected B16(F0) clones with 5-FC; format: cell-based, mouse; conditions: B16/B16 pCI-neoFCU1 100%/0%, 4 days
Protocol: These clone mixtures were then tested in the presence of different concentrations of 5-FC. Cell mortality (using trypan blue) is assessed after culturing for 4 days in the presence of 5-FC.

| SMILES | LD50 (μM) 5-FU, Mock (PANC-1) [µM] | LD50 (μM) 5-FU, Mock (SK-BR-3) [µM] | LD50 (μM) 5-FU, Mock (SW480) [µM] | LD50 for 5-FC, untransfected cells (B16(F0) cells [1]) [µM] | LD50 (μM) + 5-FC (B16(F0) cells [2]) [µM] | LD50 (μM) 5-FC, Mock (PANC-1) | LD50 (μM) 5-FC, Mock (SK-BR-3) [µM] | LD50 (μM) 5-FC, Mock (SW480) [µM] |
| --- | --- | --- | --- | --- | --- | --- | --- | --- |
| O=c1[nH]cc(F)c(=O)[nH]1 [5-FU, 5-fluorouracil] | 0.3 | 0.1 | 0.5 | – | – | – | – | – |
| Nc1nc(=O)[nH]cc1F [5-FC, 5-fluorocytosine] | – | – | – | 1000 | 5000 | 10,000 μM | 5000 | 5000 |
